Drawing on ChEMBL document CHEMBL2074474, “Prodrugs of purine and pyrimidine analogues for the intestinal di/tri-peptide transporter PepT1: affinity for hPepT1 in Caco-2 cells, drug release in aqueous media and in vitro metabolism” (J Control Release, 2003), this text covers Ki for 2 compounds.

Molecules are shown by their SMILES. pKi: −log10 of the molar value.

In the assay the target is T1, Solute carrier family 15 member 1 (Homo sapiens, UniProt P46059).
T1 sequence (P46059 whole entry): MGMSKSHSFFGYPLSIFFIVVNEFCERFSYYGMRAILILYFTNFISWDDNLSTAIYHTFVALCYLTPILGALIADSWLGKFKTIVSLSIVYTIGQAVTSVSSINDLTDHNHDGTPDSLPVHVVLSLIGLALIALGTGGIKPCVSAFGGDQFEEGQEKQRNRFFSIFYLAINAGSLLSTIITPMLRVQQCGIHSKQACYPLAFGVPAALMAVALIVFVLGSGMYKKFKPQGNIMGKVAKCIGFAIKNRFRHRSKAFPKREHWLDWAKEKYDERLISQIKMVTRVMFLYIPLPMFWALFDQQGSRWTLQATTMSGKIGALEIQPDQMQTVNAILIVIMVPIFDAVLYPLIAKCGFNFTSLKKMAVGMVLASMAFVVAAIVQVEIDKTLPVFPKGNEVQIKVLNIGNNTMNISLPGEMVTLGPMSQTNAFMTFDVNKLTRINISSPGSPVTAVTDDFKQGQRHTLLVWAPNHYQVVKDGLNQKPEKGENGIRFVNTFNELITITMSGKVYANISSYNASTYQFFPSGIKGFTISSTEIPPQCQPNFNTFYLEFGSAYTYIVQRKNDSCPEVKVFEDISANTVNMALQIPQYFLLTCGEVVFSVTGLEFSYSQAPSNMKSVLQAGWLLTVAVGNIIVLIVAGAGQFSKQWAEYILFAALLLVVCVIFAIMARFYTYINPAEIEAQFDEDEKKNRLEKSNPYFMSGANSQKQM
Kind of assay: TP_TRANSPORTER: inhibition of Gly-Sar uptake in Caco-2 cells. In kind it is functional, cell-based.

By pKi is commonly meant the negative decadic logarithm of the Ki, by convention in mol/L. A high value points to a low Ki. The compound `Cc1cn(COC(=O)C(O)C[C@H](N)C(=O)N(C)CC(=O)O)c(=O)[nH]c1=O` (some centres not stated) showed a pKi of 3.68.

Turning to `CN(CC(=O)O)C(=O)[C@@H](N)CCC(=O)OCCOCn1cnc2c(=O)[nH]c(N)nc21`, the pKi was 3.55.
